Where a SMILES comes first, the peptide text is derived from it.
Legend:
[1] = system: BT-549; experiment: Growth inhibition of human BT549 cells at 10 uM; assay type: functional
[2] = system: Hs-578T; experiment: Growth inhibition of human HS578T cells at 10 uM; assay type: functional

CC(C)C[C@@H]1NC(=O)[C@H]([C@@H](C)O)NC(=O)[C@@H]2CCCN2C(=O)[C@H](Cc2ccccc2)NC(=O)[C@@H]2CCCN2C(=O)[C@H](Cc2ccc(O)cc2)NC(=O)[C@@H]2CCCN2C(=O)[C@H](Cc2ccccc2)NC(=O)[C@@H]2CCCN2C(=O)[C@H](CC(C)C)NC1=O [STYLOPEPTIDE 2] (cyclo(FPTLLPFPYP))
inhibition at 10 µM [1]: 77% | inhibition at 10 µM [2]: 56%
